# In BindingDB's records for PubMed 1362243 (National Institute of Mental Health, 1992):
# Positions of bridges follow the written chain, without caps; N, C: chain ends. Non-standard residues stand in square brackets, D forms with d. Residues, ends and D or L forms follow the SMILES beside them. *: point of attachment. X1 = CC(O)[C@H](CO)N*
# Target: Somatostatin receptor type 4 (Rattus norvegicus, UniProt P30937)
# Sequence (P30937 whole entry): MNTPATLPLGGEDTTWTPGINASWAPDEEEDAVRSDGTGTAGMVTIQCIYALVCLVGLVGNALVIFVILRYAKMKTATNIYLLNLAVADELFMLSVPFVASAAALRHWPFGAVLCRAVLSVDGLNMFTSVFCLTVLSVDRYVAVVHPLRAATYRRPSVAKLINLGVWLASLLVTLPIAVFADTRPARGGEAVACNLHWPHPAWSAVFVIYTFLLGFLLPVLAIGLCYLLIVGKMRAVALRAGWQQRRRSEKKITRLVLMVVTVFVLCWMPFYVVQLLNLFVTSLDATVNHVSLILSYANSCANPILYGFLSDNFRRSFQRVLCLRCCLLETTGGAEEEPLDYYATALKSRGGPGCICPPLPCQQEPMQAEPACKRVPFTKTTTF
row,Compound,Ki [nM]
1,CC(O)[C@H](CO)NC(=O)[C@@H]1CSSC[C@H](NC(=O)[C@H](N)Cc2ccccc2)C(=O)N[C@@H](Cc2ccccc2)C(=O)N[C@H](Cc2c[nH]c3ccccc23)C(=O)N[C@@H](CCCCN)C(=O)N[C@@H]([C@@H](C)O)C(=O)N1 (some centres not stated) (H-[dF]CF[dW]KTC-X1; disulfide 2-7),0.18
2,CSCC[C@H](NC(=O)[C@H](C)NC(=O)[C@@H]1CCCN1C(=O)[C@H](CC(N)=O)NC(=O)[C@H](CO)NC(=O)[C@H](CC(N)=O)NC(=O)[C@H](C)NC(=O)[C@@H](N)CO)C(=O)N[C@@H](C)C(=O)N1CCC[C@H]1C(=O)N[C@@H](CCCNC(=N)N)C(=O)N[C@@H](CCC(=O)O)C(=O)N[C@@H](CCCNC(=N)N)C(=O)N[C@@H](CCCCN)C(=O)N[C@@H](C)C(=O)NCC(=O)N[C@H]1CSSC[C@@H](C(=O)O)NC(=O)[C@H](CO)NC(=O)[C@H]([C@@H](C)O)NC(=O)[C@H](Cc2ccccc2)NC(=O)[C@H]([C@@H](C)O)NC(=O)[C@H](CCCCN)NC(=O)[C@H](Cc2c[nH]c3ccccc23)NC(=O)[C@H](Cc2ccccc2)NC(=O)[C@H](Cc2ccccc2)NC(=O)[C@H](CC(N)=O)NC(=O)[C@H](CCCCN)NC1=O [somatostatin-28],0.08
